Test results as given in paper PMC3772719 (Bioorganic & medicinal chemistry letters, 2013).
Entries after “also recorded” stand apart in the source; their conditions may differ.

How the values were obtained:
[1] = tested on: PPC-1 prostate cancer cells; conditions: for synergy with TRAIL to reduce the number of viable cells: compound 5 μM, Figure 4; for synergy with TRAIL to reduce the number of viable cells / LD50 values for TRAIL in the presence of the compound: PPC-1 cells; for LD50 values for TRAIL in the presence of the compound: compound 5 μM for 4 h, then TRAIL 20 h
[2] = tested on: MDA-MB-231 cells; assay: Synergy with TNF to induce cell death in MDA-MB-231 cells; format: cell-based; conditions: compound 5 μM, various concentrations of TNF, Figure S2
[3] = tested on: human foreskin fibroblasts (HFF); format: cell-based; conditions: compound 5 μM alone or in the presence of TRAIL (100 ng/mL), Figure 5
[4] = Cellular assay; format: cell-based; conditions: Figure S1

SMILES | synergy with TRAIL to reduce the number of viable cells [1] | synergy with TNF to induce cell death [2] | toxicity in normal cells [3] | LD50 values for TRAIL in the presence of the compound [1] | activity in a cellular assay [4] | toxicity as a single agent ([1]; single agent, Figures 4, 5 and S1)
CN[C@@H](C)C(=O)N[C@H](C(=O)N1CCC[C@H]1C(=O)NNc1ccccc1)C(C)C [Compound 2a] | act synergistically with TRAIL | – | – | – | – | –
CN[C@@H](C)C(=O)N[C@H](C(=O)N1CCC[C@H]1C(=O)Nc1cccc2ccccc12)C(C)C [Compound 2b] | act synergistically with TRAIL | acts synergistically | No toxicity was observed | 0.073 to 0.089 nM | – | –
CC(C)[C@H](NC(=O)[C@H](C)N)C(=O)N[C@@H](C)C(=O)Nc1cccc2ccccc12 [Compound 8t] | – | – | – | – | did not show any activity | –
CN[C@@H](C)C(=O)N[C@H](C(=O)N1CCC[C@H]1C(=O)N[C@@H]1CCCc2ccccc21)C(C)C [Compound 2c] | act synergistically with TRAIL | – | – | 0.073 to 0.089 nM | – | –
CN[C@@H](C)C(=O)N[C@H](C(=O)N[C@@H](C)C(=O)Nc1cccc2ccccc12)C(C)C [Compound 8q] | sensitized TRAIL-resistant prostate cancer cells to apoptotic cell death; also recorded: act synergistically with TRAIL | – | No toxicity was observed | 0.073 to 0.089 nM | – | no toxicity
